This note sets out measurements from ChEMBL document CHEMBL1921771, “Structure-activity relationships of ganoderma acids from Ganoderma lucidum as aldose reductase inhibitors” (Bioorg Med Chem Lett, 2011).

The test deals with Aldo-keto reductase family 1 member B1 (Homo sapiens, UniProt P15121). Kind of test: Inhibition of recombinant human aldose reductase using dl-glyceraldehyde as substrate after 10 mins by spectrophotometry.
Consider `COC(=O)C(C)CC(=O)C[C@@H](C)[C@H]1CC(=O)[C@@]2(C)C3=C([C@@H](O)C[C@]12C)[C@@]1(C)CCC(=O)C(C)(C)[C@@H]1C[C@@H]3O` (some centres not stated), for which the IC50 is more than 189 µM.

On to `COC(=O)[C@H](C)CC(=O)C[C@@H](C)[C@H]1C[C@H](O)[C@@]2(C)C3=C(C(=O)C[C@]12C)[C@@]1(C)CC[C@H](O)C(C)(C)[C@@H]1C[C@@H]3O`, for which the IC50 is more than 184 µM.

For `C/C(=C\C(=O)CC(C)C(=O)O)[C@H]1C[C@H](O)[C@@]2(C)C3=C(C(=O)C[C@]12C)[C@@]1(C)CCC(=O)C(C)(C)[C@@H]1C[C@@H]3O` (some centres not stated) [GANODERENIC ACID A], the half-maximal inhibitory concentration (IC50) amounted to 119 µM.

With `C[C@H](CC(=O)C[C@@H](C)[C@H]1C[C@H](O)[C@@]2(C)C3=C(C(=O)C[C@]12C)[C@@]1(C)CCC(=O)C(C)(C)[C@@H]1C[C@@H]3O)C(=O)O` [GANODERIC ACID A], the half-maximal inhibitory concentration (IC50) is more than 193 µM.

On to `CC(CC(=O)C[C@@H](C)[C@H]1CC(=O)[C@@]2(C)C3=C(C(=O)C[C@]12C)[C@@]1(C)CC[C@H](O)C(C)(C)[C@@H]1C[C@@H]3O)C(=O)O` (some centres not stated) [GANODERIC ACID B], for which the half-maximal inhibitory concentration (IC50) was more than 193 µM.

Regarding `C[C@H](CC(=O)C[C@@H](C)[C@H]1CC(=O)[C@@]2(C)C3=C(C(=O)C[C@]12C)[C@@]1(C)CCC(=O)C(C)(C)[C@@H]1C[C@@H]3O)C(=O)O` [GANODERIC ACID C1], the half-inhibitory concentration (IC50) is more than 194 µM.

In the case of `C[C@H](CC(=O)C[C@@H](C)[C@H]1C[C@H](O)[C@@]2(C)C3=C(C(=O)C[C@]12C)[C@@]1(C)CC[C@H](O)C(C)(C)[C@@H]1C[C@@H]3O)C(=O)O` [GANODERIC ACID C2], the IC50 is 43.8 µM.

With `CC(CC(=O)C[C@@H](C)[C@H]1CC(=O)[C@@]2(C)C3=C(C(=O)[C@@H](O)[C@]12C)[C@@]1(C)CC[C@H](O)C(C)(C)[C@@H]1CC3=O)C(=O)O` (some centres not stated) [GANODERIC ACID C6], the IC50 is more than 193 µM.

`CC(CC(=O)C[C@@H](C)[C@H]1CC(=O)[C@@]2(C)C3=C([C@@H](O)C[C@]12C)[C@@]1(C)CCC(=O)C(C)(C)[C@@H]1C[C@@H]3O)C(=O)O` (some centres not stated) [GANODERIC ACID DF]: the IC50 amounted to 22.8 µM.

In the case of `CC(CC(=O)C[C@@H](C)[C@H]1CC(=O)[C@@]2(C)C3=C(C(=O)C[C@]12C)[C@@]1(C)CCC(=O)C(C)(C)[C@@H]1C[C@@H]3O)C(=O)O` (some centres not stated) [GANODERIC ACID D], the half-maximal inhibitory concentration (IC50) was more than 195 µM.

Regarding `CC(CC(=O)C[C@@H](C)[C@H]1CC(=O)[C@@]2(C)C3=C(C(=O)[C@@H](O)[C@]12C)[C@@]1(C)CC[C@H](O)C(C)(C)[C@@H]1C[C@@H]3O)C(=O)O` (some centres not stated) [GANODERIC ACID G], the half-inhibitory concentration (IC50) is more than 188 µM.

Take `CC(=O)O[C@@H]1C(=O)C2=C(C(=O)C[C@H]3C(C)(C)[C@@H](O)CC[C@]23C)[C@]2(C)C(=O)C[C@H]([C@H](C)CC(=O)CC(C)C(=O)O)[C@@]12C` (some centres not stated) [GANODERIC ACID H]: the 50% inhibitory concentration (IC50) was more than 175 µM.

In the case of `CC(CC(=O)C[C@@H](C)[C@H]1C[C@H](O)[C@@]2(C)C3=C(C(=O)C[C@]12C)[C@@]1(C)CCC(=O)C(C)(C)[C@@H]1CC3=O)C(=O)O` (some centres not stated) [GANODERIC ACID J], the IC50 is more than 194 µM.

Consider `CC(=O)O[C@@H]1C(=O)C2=C([C@@H](O)C[C@H]3C(C)(C)[C@@H](O)CC[C@]23C)[C@]2(C)C(=O)C[C@H]([C@H](C)CC(=O)CC(C)C(=O)O)[C@@]12C` (some centres not stated) [GANODERIC ACID K], for which the IC50 is more than 174 µM.

`CC(CC(=O)C[C@@H](C)[C@H]1C[C@H](O)[C@@]2(C)C3=C(C(=O)C[C@]12C)[C@@]1(C)CC[C@H](O)C(C)(C)[C@@H]1CC3)C(=O)O` (some centres not stated) [GANOLUCIDIC ACID B]: the 50% inhibitory concentration (IC50) was more than 199 µM.

As for `COC(=O)C(C)CC(=O)C[C@@H](C)[C@H]1C[C@H](O)[C@@]2(C)C3=C(C(=O)C[C@]12C)[C@@]1(C)CCC(=O)C(C)(C)[C@@H]1C[C@@H]3O` (some centres not stated) [METHYL GANODERATE A], the concentration for half-maximal inhibition (IC50) is more than 189 µM.

Regarding `COC(=O)C(C)CC(=O)/C=C(\C)[C@H]1C[C@H](O)[C@@]2(C)C3=C(C(=O)C[C@]12C)[C@@]1(C)CCC(=O)C(C)(C)[C@@H]1C[C@@H]3O` (some centres not stated) [METHYL GANODERENATE A], the IC50 was more than 184 µM.

In general, IC50 refers to the midpoint of a concentration-inhibition curve.
